Numbers after ± are expanded uncertainties.
Key:
[1] = Molar enthalpy of transition or fusion; conditions: Crystal; DSC
[2] = Crystal; DTA

Molar enthalpy of transition or fusion [1]	Normal melting temperature [2]	SMILES
7.52 ± 0.165 kcal/mol	214.00 ± 1.1 °C	Cc1c(Cl)cccc1Nc1ccccc1C(=O)O [2-[(3-chloro-2-methylphenyl)amino]benzoic acid]
8.38 ± 0.182 kcal/mol	204.00 ± 1.5 °C	O=C(O)c1cccnc1Nc1cccc(C(F)(F)F)c1
7.26 ± 0.16 kcal/mol	171.00 ± 0.88 °C	O=C(O)c1ccccc1Nc1cccc(Cl)c1Cl [clofenamic acid]

Source: the NIST ThermoML archive (doi:10.1016/j.fluid.2015.02.007)
